Test results reported in PubChem BioAssay (NCI).
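Briefly, cells in 96-well plates were exposed to five compound concentrations for 48 h, and endpoints were estimated by linear interpolation. Here, GI50 denotes the concentration required for 50% inhibition of growth. TGI: concentration producing complete growth inhibition.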

How the values were obtained:
Test in all cases: NCI tumour cell line growth inhibition, 48 h
SF-539 CNS = test system: SF-539 CNS
SF-295 CNS = test system: SF-295 CNS
U251 CNS = test system: U251 CNS
HCC-2998 colon = test system: HCC-2998 colon
PC-3 prostate = test system: PC-3 prostate
NCI-H522 lung = test system: NCI-H522 lung
MOLT-4 leukemia = test system: MOLT-4 leukemia
RXF 393 renal = test system: RXF 393 renal
M14 melanoma = test system: M14 melanoma
HT29 colon = test system: HT29 colon

| Compound | GI50 (SF-539 CNS) | TGI (SF-539 CNS) | GI50 (SF-295 CNS) | TGI (SF-295 CNS) | GI50 (U251 CNS) | TGI (U251 CNS) | GI50 (HCC-2998 colon) | TGI (HCC-2998 colon) | GI50 (PC-3 prostate) | TGI (PC-3 prostate) | GI50 (NCI-H522 lung) | TGI (NCI-H522 lung) | GI50 (MOLT-4 leukemia) | TGI (MOLT-4 leukemia) | GI50 (RXF 393 renal) | TGI (RXF 393 renal) | GI50 (M14 melanoma) | TGI (M14 melanoma) | GI50 (HT29 colon) | TGI (HT29 colon) |
| --- | --- | --- | --- | --- | --- | --- | --- | --- | --- | --- | --- | --- | --- | --- | --- | --- | --- | --- | --- | --- |
| O=C(O)/C=C\C(=O)N1C/C(=C\c2ccccc2Cl)C(=O)/C(=C/c2ccccc2Cl)C1 | 3010 nM | 8.24 µM | 4400 nM | 16.5 µM | 472 nM | 1.88 µM | 2060 nM | 3.87 µM | 3.56 µM | 15.5 µM | 1960 nM | 4.1 µM | 3.06 µM | 11.2 µM | 1840 nM | 3.36 µM | 3100 nM | 10.6 µM | – | – |
| CC[C@@H](C(=O)O)C1CC[C@H](C)C([C@@H](C)[C@H](O)[C@H](C)C(=O)[C@H](CC)C2O[C@]3(C=C[C@@H](O)[C@]4(CC[C@@](C)(C5CC[C@](O)(CC)[C@H](C)O5)O4)O3)[C@H](C)C[C@@H]2C)O1 (some centres undefined) | 309 nM | 3.9 µM | 261 nM | 11.1 µM | 115 nM | 10.2 µM | 130 nM | 7.52 µM | 0.0657 µM | 45.8 µM | 78.5 nM | 1.78 µM | 1.47 µM | 5.92 µM | 289 nM | 3.76 µM | 1290 nM | 2.82 µM | 293 nM | 25.7 µM |
| COc1ccc(-c2nc3sc4c(c3c(=O)[nH]2)CCCCCC4)cc1 | 2560 nM | > 33.2 µM | 989 nM | > 33.2 µM | – | – | > 33200 nM | > 33.2 µM | > 33.2 µM | > 33.2 µM | 2550 nM | > 33.2 µM | 31.6 µM | > 33.2 µM | 1620 nM | 10.4 µM | 1480 nM | > 33.2 µM | – | – |
| O=C1c2cccnc2C(=O)c2nc3cc(N4CCN(C5CC5)CC4)ccc3nc21 | 442 nM | 1.66 µM | 410 nM | 1.59 µM | 383 nM | 2.02 µM | 490 nM | 1.83 µM | 1.97 µM | 23.2 µM | 238 nM | 1.36 µM | 2.4 µM | 5.62 µM | 607 nM | 2.61 µM | 301 nM | 1.18 µM | 658 nM | 4.96 µM |
| Nc1nc2c(c3ncncc13)C(c1cccc(C(F)(F)F)c1)Cc1ncncc1-2 (centres undefined) | 1980 nM | 5.97 µM | 2990 nM | 10.7 µM | 3690 nM | 13.6 µM | 11200 nM | 48.7 µM | 4.71 µM | > 100 µM | 4660 nM | 26.1 µM | 4.78 µM | 34.9 µM | 2960 nM | 8.81 µM | 2970 nM | 10 µM | 4200 nM | 15.9 µM |
| COc1cc(C2CC(c3ccc4c(c3)OCO4)=NN2C=O)cc(OC)c1OC (centres undefined) | 2060 nM | 13 µM | 735 nM | 4.26 µM | 4420 nM | > 100 µM | 4440 nM | > 100 µM | 4.92 µM | > 100 µM | 1220 nM | > 27.6 µM | 4.34 µM | > 100 µM | 4050 nM | 22.2 µM | 1300 nM | > 100 µM | 467 nM | > 100 µM |
